# Data published in PubChem BioAssay AID2060894 (Molecular Pharmacology Branch, DTP, NCI, 2025).
# System: K12877-001-R-J1-PDC complex spheroid viability
# Assay: Anticancer human tumor K12877-001-R-J1-PDC patient-derived lung adenocarcinoma cell line growth inhibition [RAS]
# Conditions: for IC50: curve of first compound; for viability, T/C: stronger effect = lower value
# In short: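 Multi-cell-type spheroids: tumor cells plus HUVEC endothelial cells and mesenchymal stem cells. RAS-pathway inhibitors were combined with targeted agents, each dosed in half-log steps down from clinical Cmax, or from 10 microM when Cmax was unknown.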
# [1] = second compound 0.00316 µM, first compound 0.000949 µM
# [2] = second compound 0.00316 µM, first compound 0.003 µM
# [3] = second compound 0.00316 µM, first compound 0.00949 µM
# [4] = second compound 0.00316 µM, first compound 0.03 µM
# [5] = second compound 0.00316 µM, first compound 0.0949 µM
# [6] = second compound 0.00316 µM, first compound 0.3 µM
# [7] = second compound 0.01 µM, first compound 0.000949 µM
# [8] = second compound 0.01 µM, first compound 0.003 µM
# [9] = second compound 0.01 µM, first compound 0.00949 µM
# [10] = second compound 0.01 µM, first compound 0.03 µM
# [11] = second compound 0.01 µM, first compound 0.0949 µM
# [12] = second compound 0.01 µM, first compound 0.3 µM
# [13] = second compound 0.0316 µM, first compound 0.000949 µM
# [14] = second compound 0.0316 µM, first compound 0.003 µM
# [15] = second compound 0.0316 µM, first compound 0.00949 µM
# [16] = second compound 0.0316 µM, first compound 0.03 µM
# [17] = second compound 0.0316 µM, first compound 0.0949 µM
# [18] = second compound 0.0316 µM, first compound 0.3 µM
# [19] = second compound 0.1 µM, first compound 0.000949 µM
# [20] = second compound 0.1 µM, first compound 0.003 µM
# [21] = second compound 0.1 µM, first compound 0.00949 µM
# [22] = second compound 0.1 µM, first compound 0.03 µM
# [23] = second compound 0.1 µM, first compound 0.0949 µM
# [24] = second compound 0.1 µM, first compound 0.3 µM
# [25] = second compound 0.316 µM, first compound 0.000949 µM
# [26] = second compound 0.316 µM, first compound 0.003 µM
# [27] = second compound 0.316 µM, first compound 0.00949 µM
# [28] = second compound 0.316 µM, first compound 0.03 µM
# [29] = second compound 0.316 µM, first compound 0.0949 µM
# [30] = second compound 0.316 µM, first compound 0.3 µM
# [31] = second compound 1 µM, first compound 0.000949 µM
# [32] = second compound 1 µM, first compound 0.003 µM
# [33] = second compound 1 µM, first compound 0.00949 µM
# [34] = second compound 1 µM, first compound 0.03 µM
# [35] = second compound 1 µM, first compound 0.0949 µM
# [36] = second compound 1 µM, first compound 0.3 µM
# 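Note: spheroids exposed to agents for one week before readout.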
# 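Throughout, for viability, T/C: tumour cells co-cultured with HUVEC and mesenchymal stem cells in spheroids.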
smiles,measurement,setting,value
CC(=O)OC12COC1CC(O)C1(C)C(=O)C(O)C3=C(C)C(OC(=O)C(O)C(NC(=O)OC(C)(C)C)c4ccccc4)CC(O)(C(OC(=O)c4ccccc4)C21)C3(C)C (stereo unspecified) + C=CC(=O)N1CCN(c2nc(OCC3CCCN3C)nc3c(F)c(-c4nc(N)cc(C)c4C(F)(F)F)c(Cl)cc23)C(C)C1,IC50,second compound 0.00316 µM,< 31.6 nM
same,IC50,second compound 0.01 µM,< 31.6 nM
same,IC50,second compound 0.0316 µM,< 31.6 nM
same,IC50,second compound 0.1 µM,< 31.6 nM
same,IC50,second compound 0.316 µM,< 31.6 nM
same,IC50,second compound 1 µM,< 31.6 nM
same,"viability, T/C","second compound 0.00316 µM, first compound 0.0316 µM",5.23%
same,"viability, T/C","second compound 0.00316 µM, first compound 0.1 µM",4.77%
same,"viability, T/C","second compound 0.00316 µM, first compound 0.316 µM",3.44%
same,"viability, T/C","second compound 0.00316 µM, first compound 1 µM",4.18%
same,"viability, T/C","second compound 0.00316 µM, first compound 3.16 µM",4.77%
same,"viability, T/C","second compound 0.00316 µM, first compound 10 µM",16.1%
same,"viability, T/C","second compound 0.01 µM, first compound 0.0316 µM",5.39%
same,"viability, T/C","second compound 0.01 µM, first compound 0.1 µM",5.01%
same,"viability, T/C","second compound 0.01 µM, first compound 0.316 µM",3.61%
same,"viability, T/C","second compound 0.01 µM, first compound 1 µM",2.92%
same,"viability, T/C","second compound 0.01 µM, first compound 3.16 µM",3.84%
same,"viability, T/C","second compound 0.01 µM, first compound 10 µM",13.6%
same,"viability, T/C","second compound 0.0316 µM, first compound 0.0316 µM",6.48%
same,"viability, T/C","second compound 0.0316 µM, first compound 0.1 µM",4.68%
same,"viability, T/C","second compound 0.0316 µM, first compound 0.316 µM",3.7%
same,"viability, T/C","second compound 0.0316 µM, first compound 1 µM",2.91%
same,"viability, T/C","second compound 0.0316 µM, first compound 3.16 µM",3.42%
same,"viability, T/C","second compound 0.0316 µM, first compound 10 µM",10.1%
same,"viability, T/C","second compound 0.1 µM, first compound 0.0316 µM",6.61%
same,"viability, T/C","second compound 0.1 µM, first compound 0.1 µM",4.59%
same,"viability, T/C","second compound 0.1 µM, first compound 0.316 µM",2.95%
same,"viability, T/C","second compound 0.1 µM, first compound 1 µM",3.77%
same,"viability, T/C","second compound 0.1 µM, first compound 3.16 µM",5.42%
same,"viability, T/C","second compound 0.1 µM, first compound 10 µM",11.1%
same,"viability, T/C","second compound 0.316 µM, first compound 0.0316 µM",5.94%
same,"viability, T/C","second compound 0.316 µM, first compound 0.1 µM",3.96%
same,"viability, T/C","second compound 0.316 µM, first compound 0.316 µM",3.29%
same,"viability, T/C","second compound 0.316 µM, first compound 1 µM",3.54%
same,"viability, T/C","second compound 0.316 µM, first compound 3.16 µM",4.12%
same,"viability, T/C","second compound 0.316 µM, first compound 10 µM",10.3%
same,"viability, T/C","second compound 1 µM, first compound 0.0316 µM",4.92%
same,"viability, T/C","second compound 1 µM, first compound 0.1 µM",3.77%
same,"viability, T/C","second compound 1 µM, first compound 0.316 µM",4.87%
same,"viability, T/C","second compound 1 µM, first compound 1 µM",4.09%
same,"viability, T/C","second compound 1 µM, first compound 3.16 µM",4.48%
same,"viability, T/C","second compound 1 µM, first compound 10 µM",11%
CC1(C)CCC(Nc2ncc(C(F)(F)F)c(-c3c[nH]c4c(P(C)(C)=O)c(C#N)ccc34)n2)CN1 (stereo unspecified) + C=CC(=O)N1CCN(c2nc(OCC3CCCN3C)nc3c(F)c(-c4nc(N)cc(C)c4C(F)(F)F)c(Cl)cc23)C(C)C1,IC50,second compound 0.00316 µM,32.5 nM
same,IC50,second compound 0.01 µM,76 nM
same,IC50,second compound 0.0316 µM,46.6 nM
same,IC50,second compound 0.1 µM,38.5 nM
same,IC50,second compound 0.316 µM,59 nM
same,IC50,second compound 1 µM,98 nM
same,"viability, T/C",[1],107%
same,"viability, T/C",[2],85.1%
same,"viability, T/C",[3],74.4%
same,"viability, T/C",[4],53.2%
same,"viability, T/C",[5],30.1%
same,"viability, T/C",[6],36.3%
same,"viability, T/C",[7],92.3%
same,"viability, T/C",[8],78.3%
same,"viability, T/C",[9],62.5%
same,"viability, T/C",[10],59.1%
same,"viability, T/C",[11],47.4%
same,"viability, T/C",[12],43.4%
same,"viability, T/C",[13],87%
same,"viability, T/C",[14],73.6%
same,"viability, T/C",[15],63.9%
same,"viability, T/C",[16],57.2%
same,"viability, T/C",[17],42%
same,"viability, T/C",[18],33.1%
same,"viability, T/C",[19],80.1%
same,"viability, T/C",[20],76.8%
same,"viability, T/C",[21],63.8%
same,"viability, T/C",[22],52.6%
same,"viability, T/C",[23],41.6%
same,"viability, T/C",[24],32.9%
same,"viability, T/C",[25],87.7%
same,"viability, T/C",[26],79.6%
same,"viability, T/C",[27],66.2%
same,"viability, T/C",[28],54.8%
same,"viability, T/C",[29],48.1%
same,"viability, T/C",[30],35.1%
same,"viability, T/C",[31],85.6%
same,"viability, T/C",[32],77.6%
same,"viability, T/C",[33],70.5%
same,"viability, T/C",[34],62.8%
same,"viability, T/C",[35],49.7%
same,"viability, T/C",[36],38.3%
CCc1c2c(nc3ccc(O)cc13)-c1cc3c(c(=O)n1C2)COC(=O)[C@]3(O)CC + C=CC(=O)N1CCN(c2nc(OCC3CCCN3C)nc3c(F)c(-c4nc(N)cc(C)c4C(F)(F)F)c(Cl)cc23)C(C)C1,IC50,second compound 0.00316 µM,5.1 nM
same,IC50,second compound 0.01 µM,4.8 nM
same,IC50,second compound 0.0316 µM,4.04 nM
same,IC50,second compound 0.1 µM,4.57 nM
same,IC50,second compound 0.316 µM,4.75 nM
same,IC50,second compound 1 µM,4.35 nM
same,"viability, T/C",[1],88.5%
same,"viability, T/C",[2],84%
same,"viability, T/C",[3],10.2%
same,"viability, T/C",[4],4.07%
same,"viability, T/C",[5],2.12%
same,"viability, T/C",[6],1.09%
same,"viability, T/C",[7],89%
same,"viability, T/C",[8],77.8%
same,"viability, T/C",[9],9.78%
same,"viability, T/C",[10],4.25%
same,"viability, T/C",[11],2.46%
same,"viability, T/C",[12],1.37%
same,"viability, T/C",[13],88.3%
same,"viability, T/C",[14],64.4%
same,"viability, T/C",[15],8.38%
same,"viability, T/C",[16],4.14%
same,"viability, T/C",[17],2.38%
same,"viability, T/C",[18],1.15%
same,"viability, T/C",[19],75.2%
same,"viability, T/C",[20],73.2%
same,"viability, T/C",[21],9.95%
same,"viability, T/C",[22],2.92%
same,"viability, T/C",[23],1.65%
same,"viability, T/C",[24],1.21%
same,"viability, T/C",[25],83.4%
same,"viability, T/C",[26],77.9%
same,"viability, T/C",[27],7.81%
same,"viability, T/C",[28],3.82%
same,"viability, T/C",[29],2.34%
same,"viability, T/C",[30],2.52%
same,"viability, T/C",[31],82.2%
same,"viability, T/C",[32],69.9%
same,"viability, T/C",[33],8.23%
same,"viability, T/C",[34],5.41%
same,"viability, T/C",[35],2.4%
same,"viability, T/C",[36],1.32%
